Source: patent US10988459B2 (priority 2015, dated 2021)

Target: human RIP1 kinase domain (2-375) (Homo sapiens (Human), UniProt Q13546)
Assay: biochemical
Assay type: biochemical
Details: Table 5; apparent Ki (Morrison tight-binding fit); 50 nM RIP1 kinase domain, 50 uM ATP, 2 hours incubation; read-out: Ki
Procedure: Example 794: RIP1 Kinase Inhibition Assays (Biochemical Assay)
The compounds of the present invention were tested for their capacity to inhibit RIP1K activity as described below.
The ability of the receptor interacting protein kinase (RIPK1) to catalyze the hydrolysis of adenosine-5′-triphosphate (ATP) is monitored using the Transcreener ADP (adenosine-5′-diphosphate) assay (BellBrook Labs). Purified human RIP1 kinase domain (2-375) (50 nM) derived from a baculovirus-infected insect cell expression system is incubated with test compounds for 2 hours in 50 mM Hepes buffer (pH 7.5) containing 30 mM MgCl2, 1 mM dithiothreitol, 50 uM ATP, 0.002% Brij-35, and 0.5% dimethyl sulfoxide (DMSO). […] The tracer bound to the antibody is displaced by the ADP generated during the RIP1K reaction, which causes a decrease in fluorescence polarization that is measured by laser excitation at 633 nm with a FP microplate reader M1000. Fractional activity was plotted against test article concentration. Using Genedata Screener software (Genedata; Basel, Switzerland), the data were fit to the tight-binding apparent inhibition constant (Ki^app) Morrison equation [Williams, J. W. and Morrison, J. F. (1979) The kinetics of reversible tight-binding inhibition. Methods Enzymol 63: 437-67]. The following equation was used to calculate fractional activity and Ki^app:
[formula] where [E]T and [I]T are the total concentrations of active enzyme and test article, respectively.
“Method” in the first column of each table refers to the synthetic method(s) used to prepare each compound as shown in the Examples above. In certain examples, chiral column retention times (min) are provided for certain stereoisomers.

human RIP1 kinase domain (2-375), sequence (Q13546 2-375): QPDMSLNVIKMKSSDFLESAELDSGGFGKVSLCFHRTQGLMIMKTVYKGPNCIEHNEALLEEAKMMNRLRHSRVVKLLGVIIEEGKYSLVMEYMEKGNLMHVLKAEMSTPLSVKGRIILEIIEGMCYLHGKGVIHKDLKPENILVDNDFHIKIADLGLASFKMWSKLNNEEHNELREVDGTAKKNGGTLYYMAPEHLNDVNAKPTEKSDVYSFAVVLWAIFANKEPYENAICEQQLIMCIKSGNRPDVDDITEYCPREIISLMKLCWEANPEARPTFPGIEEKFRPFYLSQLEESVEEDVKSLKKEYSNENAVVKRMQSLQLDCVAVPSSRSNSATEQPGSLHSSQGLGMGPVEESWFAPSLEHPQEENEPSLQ

Compound	Ki
CN1C(=O)C(NC(=O)c2ncn(Cc3ccccc3)n2)CCn2nc(Cn3cccn3)cc21 (racemic) [Example 705, 1-benzyl-N-[4-methyl-5-oxo-2-(pyrazol-1-ylmethyl)-7,8-dihydro-6H-pyrazolo[1,5-a][1,3]diazepin-6-yl]-1,2,4-triazole-3-carboxamide]	114 nM
Cc1nccn1Cc1cc2n(n1)CCC(NC(=O)c1ncn(Cc3ccccc3)n1)C(=O)N2C (racemic) [Example 706, 1-benzyl-N-[4-methyl-2-[(2-methylimidazol-1-yl)methyl]-5-oxo-7,8-dihydro-6H-pyrazolo[1,5-a][1,3]diazepin-6-yl]-1,2,4-triazole-3-carboxamide]	413 nM
Cc1ncc(-c2cc3n(n2)CCC(NC(=O)c2ncn(Cc4ccccc4)n2)C(=O)N3C)n1C (racemic) [Example 775, 1-benzyl-N-(2-(1,2-dimethyl-1H-imidazol-5-yl)-4-methyl-5-oxo-5,6,7,8-tetrahydro-4H-pyrazolo[1,5-a][1,3]diazepin-6-yl)-1H-1,2,4-triazole-3-carboxamide]	182 nM
Cc1nc(-c2cc3n(n2)CCC(NC(=O)c2ncn(Cc4ccccc4)n2)C(=O)N3C)cn1C (racemic) [Example 776, 1-benzyl-N-(2-(1,2-dimethyl-1H-imidazol-4-yl)-4-methyl-5-oxo-5,6,7,8-tetrahydro-4H-pyrazolo[1,5-a][1,3]diazepin-6-yl)-1H-1,2,4-triazole-3-carboxamide]	212 nM
CN1C(=O)C(NC(=O)c2ncn(Cc3ccccc3)n2)CCn2nc(-c3ccn(C)n3)cc21 (racemic) [Example 777, 1-benzyl-N-(4-methyl-2-(1-methyl-1H-pyrazol-3-yl)-5-oxo-5,6,7,8-tetrahydro-4H-pyrazolo[1,5-a][1,3]diazepin-6-yl)-1H-1,2,4-triazole-3-carboxamide]	70 nM
CN1C(=O)C(NC(=O)c2ncn(Cc3ccccc3)n2)CCn2nc(-c3cnn(C)c3)cc21 (racemic) [Example 778, 1-benzyl-N-(4-methyl-2-(1-methyl-1H-pyrazol-4-yl)-5-oxo-5,6,7,8-tetrahydro-4H-pyrazolo[1,5-a][1,3]diazepin-6-yl)-1H-1,2,4-triazole-3-carboxamide]	171 nM

Same assay, conditions: human RIP1 kinase domain (2-375), 50 uM ATP, 2 hours incubation, Transcreener ADP assay; read-out: RIP1 Ki

Compound	Ki
O=C(N[C@H]1COc2cc(F)cc(F)c2NC1=O)c1n[nH]c2c1C[C@@H](C(F)(F)F)CC2 (single isomer, unassigned) [Example 86]	20.8 nM
O=C(N[C@H]1COc2cc(F)cc(F)c2NC1=O)c1n[nH]c2c1C[C@H](C(F)(F)F)CC2 (single isomer, unassigned) [Example 87]	104 nM
CN1C(=O)[C@@H](NC(=O)c2cn(Cc3ccccc3)nn2)CCn2nc(C3CC3)cc21 (single isomer, unassigned) [Example 112]	139 nM
CN1C(=O)[C@@H](NC(=O)c2nc3n(n2)[C@@H](c2ccccc2)CC3)CCn2nccc21 (single isomer, unassigned) [Example 125]	891 nM
CN1C(=O)[C@@H](NC(=O)c2nc3n(n2)[C@H](c2ccccc2)CC3)CCn2nccc21 (single isomer, unassigned) [Example 126]	24.1 nM
CN1C(=O)[C@@H](NC(=O)c2ncn(Cc3ccccc3)n2)CC[C@@H]2[C@H]1C2(F)F (single isomer, unassigned) [Example 129]	388 nM
CN1C(=O)[C@@H](NC(=O)c2ncn(Cc3ccccc3)n2)CC[C@H]2[C@@H]1C2(F)F (single isomer, unassigned) [Example 130]	> 10000 nM
CCOC(=O)[C@@H]1[C@@H]2CC[C@H](NC(=O)c3ncn(Cc4ccccc4)n3)C(=O)N(C)[C@@H]21 (single isomer, unassigned) [Example 131]	1300 nM
CCOC(=O)[C@H]1[C@H]2CC[C@H](NC(=O)c3ncn(Cc4ccccc4)n3)C(=O)N(C)[C@H]21 (single isomer, unassigned) [Example 132]	5000 nM
CN1C(=O)[C@@H](NC(=O)c2cc3c(cn2)CO[C@@]32CCOC2)COc2ccccc21 (single isomer, unassigned) [Example 159]	327 nM
CCn1nc(C(=O)N[C@H]2COc3ccccc3N(C)C2=O)c2c1CC[C@@H](C(F)(F)F)C2 (single isomer, unassigned) [Example 184]	407 nM
CCn1nc(C(=O)N[C@H]2COc3ccccc3N(C)C2=O)c2c1CC[C@H](C(F)(F)F)C2 (single isomer, unassigned) [Example 185]	825 nM

Same assay, conditions: tight-binding apparent inhibition constant; human RIP1 kinase domain (2-375) 50 nM, 50 uM ATP, 2 hours; read-out: Ki

Compound	Ki
Cc1cc(F)c2c(c1)OC[C@H](NC(=O)c1nc3n(n1)[C@H](C(C)C)CC3)C(=O)N2 (single isomer, unassigned) [Example 352]	96.9 nM
CC(C)[C@@H]1CCc2nc(C(=O)N[C@H]3CCn4nccc4N(C)C3=O)nn21 (single isomer, unassigned) [Example 353]	49.8 nM
Cc1cc(F)c2c(c1)OC[C@H](NC(=O)c1nc3n(n1)[C@@H](C(C)C)CC3)C(=O)N2 (single isomer, unassigned) [Example 354]	4.5 nM
CC[C@H]1CCc2nc(C(=O)N[C@H]3COc4ccccc4N(C)C3=O)nn21 (single isomer, unassigned) [Example 358]	9 nM
CC[C@@H]1CCc2nc(C(=O)N[C@H]3COc4ccccc4N(C)C3=O)nn21 (single isomer, unassigned) [Example 359]	303 nM
CN1C(=O)[C@@H](NC(=O)c2nc3n(n2)[C@@H](c2ccccc2)CC3)CCn2nccc21 (single isomer, unassigned) [Example 362]	896 nM
CN1C(=O)[C@@H](NC(=O)c2nc3n(n2)[C@H](c2ccccc2)CC3)CCn2nccc21 (single isomer, unassigned) [Example 363]	21.2 nM
CN1C(=O)[C@@H](NC(=O)c2ncn(Cc3ccccc3)n2)CC[C@@H]2[C@H]1C2(F)F (single isomer, unassigned) [Example 364]	450 nM
CC(O)c1cc2n(n1)CC[C@H](NC(=O)c1ncn(Cc3ccccc3)n1)C(=O)N2C (single isomer, unassigned) [Example 367]	161 nM
CC(O)c1cc2n(n1)CC[C@H](NC(=O)c1ncn(Cc3ccccc3)n1)C(=O)N2C (single isomer, unassigned) [Example 368]	154 nM
CN1C(=O)C(NC(=O)c2ncn(Cc3ccccc3)n2)CCn2nc(C(C)(C)F)cc21 (single isomer, unassigned) [Example 369, 1-benzyl-N-[2-(1-fluoro-1-methyl-ethyl)-4-methyl-5-oxo-7,8-dihydro-6H-pyrazolo[1,5-a][1,3]diazepin-6-yl]-1,2,4-triazole-3-carboxamide]	345 nM
CN1C(=O)C(NC(=O)c2ncn(Cc3ccccc3)n2)CCn2nc(C(C)(C)F)cc21 (single isomer, unassigned) [Example 370, 1-benzyl-N-[2-(1-fluoro-1-methyl-ethyl)-4-methyl-5-oxo-7,8-dihydro-6H-pyrazolo[1,5-a][1,3]diazepin-6-yl]-1,2,4-triazole-3-carboxamide]	555 nM
CN1C(=O)[C@@H](NC(=O)c2nc3n(n2)[C@H](c2ccccc2)CCC3)CCn2nccc21 (single isomer, unassigned) [Example 384]	2100 nM
CN1C(=O)[C@@H](NC(=O)c2nc3n(n2)[C@@H](c2cnn(C)c2)CCC3)CCn2nccc21 (single isomer, unassigned) [Example 404]	318 nM
CC(C)[C@H]1CCCc2nc(C(=O)N[C@H]3COc4ccccc4N(C)C3=O)nn21 (single isomer, unassigned) [Example 413]	227 nM
CN1C(=O)[C@@H](NC(=O)c2nc3n(n2)[C@@H](C(F)(F)F)CCC3)COc2ccccc21 (single isomer, unassigned) [Example 425]	471 nM
Cc1cc(F)c2c(c1)OC[C@H](NC(=O)c1nc3n(n1)[C@@H](C(F)(F)F)CCC3)C(=O)N2 (single isomer, unassigned) [Example 427]	210 nM
Cc1cc(F)c2c(c1)OC[C@H](NC(=O)c1nc3n(n1)[C@H](C(F)(F)F)CCC3)C(=O)N2 (single isomer, unassigned) [Example 428]	8.14 nM
O=C(N[C@H]1CCc2cc(F)cc(F)c2NC1=O)c1nc2n(n1)[C@@H](C(F)(F)F)CCC2 (single isomer, unassigned) [Example 429]	213 nM
O=C(N[C@H]1CCc2cc(F)cc(F)c2NC1=O)c1nc2n(n1)[C@H](C(F)(F)F)CCC2 (single isomer, unassigned) [Example 430]	21 nM
O=C(N[C@H]1COc2cc(F)cc(F)c2NC1=O)c1nc2n(n1)[C@@H](C(F)(F)F)CCC2 (single isomer, unassigned) [Example 431]	434 nM
O=C(N[C@H]1COc2cc(F)cc(F)c2NC1=O)c1nc2n(n1)[C@H](C(F)(F)F)CCC2 (single isomer, unassigned) [Example 432]	12.7 nM
CC(C)[C@H]1CCCc2nc(C(=O)N[C@H]3CCc4cc(F)cc(F)c4NC3=O)nn21 (single isomer, unassigned) [Example 434]	174 nM
